Measured values: patent US8759323B2, “Protein phosphatase inhibitor” (LSIP, LLC, priority 2008, dated 2014)
Like-named read-outs stand apart in the source and are kept apart here.

What was measured:
Assay type in all cases: biochemical
[1] = target: T1, PPM1D protein catalytic domain (positions 1 to 420), His tag fusion (Homo sapiens, UniProt O15297); assay: PPM1D-inhibitory activity, single concentration (Test Example 1, BIOMOL GREEN free phosphate); parameters: dose or concentration left out as unconfirmed; settings: read-out: Rate of PPM1D inhibition (: %)
T1 construct: the catalytic domain (the positions 1 to 420) of PPM1D protein; His tag; made in house; host or cells: E. coli (pColdI vector)
T1 sequence (O15297 1-420): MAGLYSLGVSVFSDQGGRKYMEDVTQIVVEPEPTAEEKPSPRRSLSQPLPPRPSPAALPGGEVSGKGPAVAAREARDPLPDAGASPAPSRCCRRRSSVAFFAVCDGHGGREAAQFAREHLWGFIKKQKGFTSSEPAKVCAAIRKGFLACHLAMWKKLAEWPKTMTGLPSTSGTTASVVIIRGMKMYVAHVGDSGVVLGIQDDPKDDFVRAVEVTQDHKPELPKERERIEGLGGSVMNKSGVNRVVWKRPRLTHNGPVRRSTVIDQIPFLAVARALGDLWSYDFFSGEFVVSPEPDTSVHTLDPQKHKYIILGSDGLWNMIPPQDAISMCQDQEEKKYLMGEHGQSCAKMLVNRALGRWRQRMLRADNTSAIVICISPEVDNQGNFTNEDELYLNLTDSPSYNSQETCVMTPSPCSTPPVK
Description: The PPM1D-inhibitory activity of the compound of the present invention (1) was measured.
Into a pColdI vector (TaKaRa Bio Inc.), cDNA encoding the catalytic domain (the positions 1 to 420) of PPM1D protein (Protein ID: O15297/cDNA ID: U70385) was introduced, and the PPM1D protein was expressed in E. coli as a His tag fusion protein. The protein of interest was purified by metal affinity chromatography with BD-TALON resin (CLONTECH), and then eluted with an elution buffer (150 mM imidazole, PBS (pH 7.5), 500 mM NaCl, 10% glycerol, 0.2% ethanol, and 1 mM 2-mercaptoethanol). The PPM1D protein thus eluted was dialyzed against a dialysis buffer (50 mM Tris-HCl (pH 7.5), 0.1 mM EGTA, and 0.02% 2-mercaptoethanol) for 16 hours, and then stored at −80° C. as a 50% glycerol stock (an enzyme concentration of 1 μM).
The enzyme that was expressed and purified by the aforementioned method was used for analysis of the inhibitory effect of the compound on PPM1D. […] A purified phospho-p53 peptide was dissolved in H2O to prepare a 400 μM original substrate solution. The test compound of Example 1 (inhibitor) was dissolved in ethanol (EtOH) to a concentration of 40 mM, and then diluted with dimethyl sulfoxide (DMSO) to adjust an original inhibitor solution with a concentration of 4 mM in advance. Other inhibitors were dissolved in dimethyl sulfoxide (DMSO) to prepare original inhibitor solutions with a concentration of 4 mM. 30 μL of a mixed solution of the inhibitor and the substrate (66.7 μM phosphorylated peptide substrate, […], 1.7% DMSO (in the case of Example 1, 1.5% DMSO and 0.2% EtOH), and 13 mM Tris-HCl (pH 8.0)) was kept warm at 30° C., to which 20 μL of a mixed solution of an enzyme and a metal ion kept at 4° C. (10 nM PPM1D, 125 mM Tris-HCl (pH 7.5), 0.25 mM EGTA, 0.05% 2-mercaptoethanol, and 75 mM MgCl2) was added. The resulting mixture was incubated at 30° C. for 10 minutes, and then the inhibitory activity on PPM1D was measured. The enzyme reaction was terminated with addition of 100 μL of a BIOMOL GREEN reagent (Biomol), and 30 minutes later, the absorbance at 620 nm was measured to detect phosphoric acid freed by PPM1D. The inhibitory effect on PPM1D was analyzed by measuring, from the absorbance measured at 620 nm, the amount of free phosphoric acid reduced due to the addition of the inhibitor with respect to the amount of free phosphoric acid in the case of addition of DMSO not including the inhibitor.

PP2A = target: T2, PP2A (Homo sapiens, UniProt P67775); assay: PP2A inhibitory activity (Test Example 2); settings: with addition of 40 μM inhibitor
T2 construct: purchased Promega K.K
T2 sequence (P67775 whole entry): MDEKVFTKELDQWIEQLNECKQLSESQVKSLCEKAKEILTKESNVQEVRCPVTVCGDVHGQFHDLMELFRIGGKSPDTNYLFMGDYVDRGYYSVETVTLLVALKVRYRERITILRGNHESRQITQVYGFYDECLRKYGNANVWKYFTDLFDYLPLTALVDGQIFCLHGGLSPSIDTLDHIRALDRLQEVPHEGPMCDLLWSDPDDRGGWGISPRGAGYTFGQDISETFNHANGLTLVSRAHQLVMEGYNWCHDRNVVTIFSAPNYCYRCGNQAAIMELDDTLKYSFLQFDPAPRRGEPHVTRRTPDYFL
T2 sequence (P30153 2-589 partner limits assumed): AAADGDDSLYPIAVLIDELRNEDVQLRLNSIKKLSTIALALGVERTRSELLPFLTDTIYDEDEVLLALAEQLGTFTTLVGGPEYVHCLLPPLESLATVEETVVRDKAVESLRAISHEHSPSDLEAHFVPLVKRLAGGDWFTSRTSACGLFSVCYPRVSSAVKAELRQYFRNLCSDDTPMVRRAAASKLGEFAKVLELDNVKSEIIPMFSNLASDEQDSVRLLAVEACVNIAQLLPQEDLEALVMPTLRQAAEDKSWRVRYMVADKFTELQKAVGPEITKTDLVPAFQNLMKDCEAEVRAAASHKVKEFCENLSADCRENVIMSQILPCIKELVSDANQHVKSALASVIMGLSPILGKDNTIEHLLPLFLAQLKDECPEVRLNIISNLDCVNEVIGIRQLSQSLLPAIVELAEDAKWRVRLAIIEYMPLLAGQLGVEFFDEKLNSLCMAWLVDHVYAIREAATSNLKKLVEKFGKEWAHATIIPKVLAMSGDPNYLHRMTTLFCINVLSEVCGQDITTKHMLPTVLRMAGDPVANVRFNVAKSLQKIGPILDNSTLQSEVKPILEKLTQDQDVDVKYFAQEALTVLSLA
Description: Also, in order to analyze the enzyme selectivity of the inhibitor within the Ser/Thr phosphatase family, the inhibitory effect on PP2A (Protein ID: P67775/cDNA ID: X12649), which belongs to the PPP family, was analyzed. PP2A was purchased from Promega K.K. As a substrate of PP2A, a phospho-p38 peptide analog (Ac-Thr-Asp-Asp-Glu-Met-Thr(P)-Gly-Tyr-Val-Ala-Thr-NH2: Thr(P) indicates phosphorylated Thr) was used. 30 μL of a mixed solution of the inhibitor and the substrate (333.3 μM phosphorylated peptide substrate, each concentration of the inhibitor, 1.7% DMSO (in the case of Example 1, 1.5% DMSO and 0.2% EtOH), and 13 mM Tris-HCl (pH 8.0)) was kept warm at 30° C., to which 20 μL of a mixed solution of an enzyme and a metal ion kept at 4° C. (25 mU PP2A, 125 mM Tris-HCl (pH 7.5), 0.25 mM EGTA, 0.05% 2-mercaptoethanol, and 75 mM MgCl2) was added. The resulting mixture was incubated at 30° C. for 10 minutes, and then the inhibitory activity on PP2A was measured.
The inhibitory activity on PPM1A, PP2A, and PPM1D at each final concentration of the inhibitor (0, 0.1, 0.2, 0.4, 1, 2, 4, 10, or 40 μM) was measured three times with respect to each concentration, and the concentration of the inhibitor required for 50% inhibition of the enzyme activity (IC50) was determined. […]

[2] = target: T3, full length PPM1A (382 residues) (Homo sapiens, UniProt P35813); assay: PPM1A inhibitory activity (Test Example 2); settings: 16 nM PPM1A, phospho-p38 peptide analog substrate, MnCl2
T3 construct: cDNA encoding full length PPM1A (382 residues); His tag (inferred: same pColdI vector, purified like His-PPM1D); made in house; host or cells: E. coli (pColdI vector)
T3 sequence (P35813 1-382): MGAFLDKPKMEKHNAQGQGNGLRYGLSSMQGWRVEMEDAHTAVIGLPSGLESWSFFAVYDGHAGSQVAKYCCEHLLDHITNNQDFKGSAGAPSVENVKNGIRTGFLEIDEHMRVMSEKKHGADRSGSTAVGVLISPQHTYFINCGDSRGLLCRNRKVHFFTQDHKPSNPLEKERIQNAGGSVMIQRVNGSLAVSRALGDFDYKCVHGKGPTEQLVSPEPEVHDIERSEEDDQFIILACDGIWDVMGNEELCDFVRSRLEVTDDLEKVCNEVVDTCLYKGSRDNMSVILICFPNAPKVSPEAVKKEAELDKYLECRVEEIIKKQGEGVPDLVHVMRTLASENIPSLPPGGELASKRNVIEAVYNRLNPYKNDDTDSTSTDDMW
Description: In order to analyze the enzyme selectivity of the inhibitor, the inhibitory effect on PPM1A, which belongs to the PPM1 family as PPM1D does, was analyzed and compared with the inhibitory effect on PPM1D. Into a pColdI vector, cDNA encoding full length PPM1A (382 residues) (Protein ID: P35813/cDNA ID: S87759) was introduced, and the PPM1A was expressed in E. coli and then purified similarly to PPM1D. The inhibitory activity on 16 nM purified PPM1A was measured. As a substrate of PPM1A, a phospho-p38 peptide analog (Ac-Asp-Asp-Glu-Nle-Thr(P)-Gly-Tyr(P)-Val-Ala-Thr-Arg-NH2: Thr(P), Tyr(P), and Nle indicate phosphorylated Thr, phosphorylated Tyr, and norleucine, respectively) was used.
30 μL of a mixed solution of the inhibitor and the substrate (66.7 μM phosphorylated peptide substrate, each concentration of the inhibitor, 1.7% DMSO (for the test compound of Example 1, 1.5% DMSO and 0.2% EtOH), and 13 mM Tris-HCl (pH 8.0)) was kept warm at 30° C., to which 20 μL of a mixed solution of an enzyme and a metal ion kept at 4° C. (40 nM PPM1A, 125 mM Tris-HCl (pH 7.5), 0.25 mM EGTA, 0.05% 2-mercaptoethanol, and 25 mM MnCl2) was added. The resulting mixture was incubated at 30° C. for 10 minutes, and then the inhibitory activity on PPM1A was measured. […]

PPM1D = target: T4, PPM1D (Homo sapiens, UniProt O15297); assay: PPM1D IC50, inhibition constant (Ki) and selectivity (Test Example 2); settings: for Ki: PPM1D, phospho-p53 (Ser 15) peptide analog substrate 5-40 μM; for IC50: inhibitor 0-40 μM, measured three times
T4 construct: the catalytic domain (the positions 1 to 420) of PPM1D protein; His tag; made in house; host or cells: E. coli (pColdI vector)
T4 sequence (O15297 1-420): T1 sequence (O15297 1-420)
Description: The inhibitory activity on PPM1A, PP2A, and PPM1D at each final concentration of the inhibitor (0, 0.1, 0.2, 0.4, 1, 2, 4, 10, or 40 μM) was measured three times with respect to each concentration, and the concentration of the inhibitor required for 50% inhibition of the enzyme activity (IC50) was determined.
The original inhibitor solution was diluted with a solvent (DMSO, (for the test compound of Example 1, 90% DMSO and 10% EtOH)) to prepare each concentration of an inhibitor solution.
Other conditions for measurement of the enzyme activity are the same as those in Test Example 1.
The enzyme selectivity of the inhibitor was analyzed by comparing the IC50 values of the inhibitor on PPM1D, PPM1A, and PP2A.
Also, the inhibition constant of the inhibitor (Ki) and the inhibition pattern were measured as follows.
As a substrate, a phospho-p53 (Ser 15) peptide analog (Ac-Val-Glu-Pro-Pro-Leu-Ser(P)-[…]NH2: Ser(P) indicates phosphorylated Ser) was used. 30 μL of a mixed solution of the inhibitor and the substrate (each concentration of the phosphorylated peptide substrate, each concentration of the inhibitor, 1.7% DMSO (in the case of Example 1, 1.5% DMSO and 0.2% EtOH), and 13 mM Tris-HCl (pH 8.0)) was kept warm at 30° C., to which 20 μL of a mixed solution of an enzyme and a metal ion kept at 4° C. (10 nM PPM1D, 125 mM Tris-HCl (pH 7.5), 0.25 mM EGTA, 0.05% 2-mercaptoethanol, and 75 mM MgCl2) was added. The resulting mixture was incubated at 30° C. for 10 minutes, and then the inhibitory activity on PPM1D was measured.
The activity on PPM1D was measured at each concentration of the phosphorylated peptide substrate (5, 10, 20, and 40 μM), and at each final concentration of the inhibitor (0, 0.3, 0.4, and 0.6 μM (the compound of Example 1 [Compound 1]) or 0, 0.4, and 1.2 μM (the compound of Example 5 [Compound 2]). The enzyme reaction was terminated with addition of 50 μL of a BIOMOL GREEN reagent (Biomol) to a reaction solution, and 30 minutes later, the absorbance at 620 nm was measured to detect phosphoric acid freed by PPM1D.
Based on the results thus obtained, Ki (μM) was calculated.

[3] = phospho-p53 (Ser 15) peptide substrate, 30° C., 10 minutes, read-out: Rate of PPM1D inhibition (%)

| inhibition [1, 3] [%] | Structure (SMILES) | inhibition [1] [%] | also measured |
| --- | --- | --- | --- |
| 0 | COC(=O)[C@]1(C)CC(=O)C[C@]2(C)[C@@H]3C[C@@H](C)C[C@@H](OC(C)=O)[C@H]3CC(=O)[C@H]21 [Comparative Example 2, reference compound] | – | – |
| 0 | CCOC(=O)/C=C/C12CC[C@](C)([C@@H]1CO)C2(C)C [Comparative Example 3, reference compound] | – | – |
| 0 | C=C1C2(/C=C/CO)CC[C@@]1(C)C2(C)C [Comparative Example 4, reference compound] | – | – |
| 97.1 ± 2.49 | CC[Si](CC)(CC)O[C@@H]1C[C@H](C)C[C@@H]2[C@@H]1C[C@H](O[Si](C)(C)C(C)(C)C)[C@@H]1[C@](C)(CO)C[C@H](O)C[C@@]21C [Example 1] | – | inhibition at 40 µM (PP2A): 11%; IC50 [2]: 21000 ± 1700 nM; Ki (PPM1D): 590 ± 50 nM; IC50 (PPM1D): 430 ± 40 nM |
| – | C[C@H]1C[C@@H](O)[C@H]2C[C@H](O[Si](C)(C)C(C)(C)C)[C@@H]3[C@](C)(CO)C[C@H](O)C[C@@]3(C)[C@@H]2C1 [Example 4] | 25.1 | – |
| 92.7 ± 1.4 | CCOC(=O)C=CC12CCC(C)(C1CO[Si](C(C)C)(C(C)C)C(C)C)C2(C)C (stereo not shown) [Example 5] | – | inhibition at 40 µM (PP2A): 14%; IC50 [2]: 28000 ± 4200 nM; Ki (PPM1D): 2600 ± 100 nM; IC50 (PPM1D): 930 ± 40 nM |
| – | CC(C)[Si](OCCCC#CCO)(C(C)C)C(C)C [Example 10] | 35.4 ± 2.18 | – |
| – | CSC(C)(CO[Si](C(C)C)(C(C)C)C(C)C)S(=O)(=O)c1ccc(C)cc1 (stereo not shown) [Example 11] | 33.7 ± 4.78 | – |
